Measured values published in patent US6420455B1, “Antimicrobial composition containing photosensitizers articles, and methods of use” (3M Innovative Properties Company, priority 1999, dated 2002).

Experiments:
Assay in all cases: Zone of inhibition of dye-dipped filter disks on agar lawn
[1] = test system: Staph. Aureus; format: cell-based, Staphylococcus aureus; details: for Zone of Inhibition in Dark: 10 mg/ml dye in water on 6-mm disk; for Zone of Inhibition in Room Light (after 30 min.) / Zone of Inhibition in Room Light, 15 Minutes / Zone of Inhibition in Room Light Overnight: 10 mg/ml dye on 6-mm disk
Procedure: (§1) The procedure used for testing for antibacterial and antifungal activity is as follows.
Bacteria or fungi stock was plated onto Trypticase Soy Broth (TSB) agar (Becton Dickinson, Cockeysville, Md.) and incubated at 37° C. overnight, at which time several colonies were transferred to phosphate buffered saline (PBS) to give a solution with final concentration of 10^6 bacteria/ml or fungi/ml, as determined by comparison of turbidity with McFarland standards. Subsequently, a lawn of the bacterium or fungus was prepared by triple swabbing a Trypticase Soy broth agar plate (prepared using TSB and agar according to label instructions). Then, 6-mm diameter paper filter disks were dipped into one of the dyed solutions, blotted to remove the excess solution, and placed on the agar plates. […]
(§2) The plates were removed from the incubator and inspected for clear areas surrounding treated 6-mm filter disks that are indicative of prevention of growth of bacteria. The diameter of each clear area was measured and recorded and compared with controls.

[2] = test system: Salmonella spp.; format: cell-based; details: for Zone of Inhibition in Dark: 10 mg/ml dye on 6-mm disk
Procedure: as §1
(§3) Bacteria or fungi stock was plated onto Trypticase Soy Broth (TSB) agar (Becton Dickinson, Cockeysville, Md.) and incubated at 37° C. overnight, at which time several colonies were transferred to phosphate buffered saline (PBS) to give a solution with final concentration of 10^6 bacteria/ml or fungi/ml, as determined by comparison of turbidity with McFarland standards. Subsequently, a lawn of the bacterium or fungus was prepared by triple swabbing a Trypticase Soy broth agar plate (prepared using TSB and agar according to label instructions). Then, 6-mm diameter paper filter disks were dipped into one of the dyed solutions, blotted to remove the excess solution, and placed on the agar plates. Each plate was then either kept in the dark (control) or irradiated for 15 minutes in room light or for overnight in room light before incubation at 37° C. for 24 hours.
as §2

[3] = test system: C. albicans; format: cell-based, Candida albicans; details: for Zone of Inhibition in Dark: 10 mg/ml dye on 6-mm disk
Procedure: as §1, §3, §2

[4] = test system: E. coli; format: cell-based, Escherichia coli; details: for Zone of Inhibition in Dark: 10 mg/ml dye on 6-mm disk
Procedure: as §1, §3, §2

[5] = test system: E. faecium; format: cell-based, Enterococcus faecium; details: for Zone of Inhibition in Dark: 10 mg/ml dye on 6-mm disk
Procedure: as §1, §3, §2

[6] = test system: P. aeruginosa; format: cell-based, Pseudomonas aeruginosa; details: for Zone of Inhibition in Dark: 10 mg/ml dye on 6-mm disk
Procedure: as §1, §3, §2

Row | SMILES | Zone of Inhibition in Dark [1] [mm] | Zone of Inhibition in Room Light (after 30 min.) [1] [mm] | Zone of Inhibition in Dark [2] [mm] | Zone of Inhibition in Room Light, 15 Minutes [2] [mm] | Zone of Inhibition in Room Light Overnight [2] [mm] | Zone of Inhibition in Dark [3] [mm] | Zone of Inhibition in Room Light, 15 Minutes [3] [mm] | Zone of Inhibition in Room Light Overnight [3] [mm] | Zone of Inhibition in Dark [4] [mm] | Zone of Inhibition in Room Light, 15 Minutes [4] [mm] | Zone of Inhibition in Room Light Overnight [4] [mm] | Zone of Inhibition in Dark [5] [mm] | Zone of Inhibition in Room Light, 15 Minutes [5] [mm] | Zone of Inhibition in Room Light Overnight [5] [mm] | Zone of Inhibition in Dark [6] [mm] | Zone of Inhibition in Room Light, 15 Minutes [6] [mm] | Zone of Inhibition in Room Light Overnight [6] [mm] | Zone of Inhibition in Room Light, 15 Minutes [1] [mm] | Zone of Inhibition in Room Light Overnight [1] [mm]
1 | CN(C)c1ccc(C(=C2C=CC(=[N+](C)C)C=C2)c2ccc(N(C)C)cc2)cc1 [Crystal Violet] | 30 | 30 | – | – | – | – | – | – | – | – | – | – | – | – | – | – | – | – | –
2 | CN(C)c1ccc2nc3ccc(=[N+](C)C)cc-3sc2c1 [Methylene Blue] | 18 | – | 0 | 0 | 0 | 12 | 12 | 18 | 8 | 0 | 0 | 16 | 16 | 19 | 0 | 0 | 0 | 20 | 28
3 | O=C([O-])c1c(Cl)c(Cl)c(Cl)c(Cl)c1-c1c2cc(I)c(=O)c(I)c-2oc2c(I)c([O-])c(I)cc12.[Na+].[Na+] [Rose Bengal disodium salt] | 23 | – | 7 | 8 | 19 | 0 | 0 | 13 | 0 | 0 | 11 | 19 | 19 | 34 | 0 | 0 | 13 | 21 | 36
4 | Cc1cc2nc3ccc(N(C)C)cc3[s+]c2cc1N.[Cl-] [Toluidine Blue O] | 20 | 19 | – | – | – | – | – | – | – | – | – | – | – | – | – | – | – | – | –
